Source: ChEMBL document CHEMBL3603836, “Hybrid pyrimidine alkynyls inhibit the clinically resistance related Bcr-Abl(T315I) mutant” (Bioorg Med Chem Lett, 2015)
pIC50: −log10 of the molar value. Active and inactive are the calls of the source. The rule behind the calls is not given here.

Assays:
Mus musculus [1] = test: Toxicity in human K562 cells expressing wild type Bcr-Abl xenografted mouse assessed as change in body weight at 3.3 to 10 mg/kg, po qd for 16 days relative to control; type: organism-based; details: in vivo, 384 h
Bcr/Abl fusion protein = Bcr/Abl fusion protein (Homo sapiens, UniProt P00519); type: protein assay
Chain of Bcr/Abl fusion protein (P00519 whole entry, the tested form may be a part): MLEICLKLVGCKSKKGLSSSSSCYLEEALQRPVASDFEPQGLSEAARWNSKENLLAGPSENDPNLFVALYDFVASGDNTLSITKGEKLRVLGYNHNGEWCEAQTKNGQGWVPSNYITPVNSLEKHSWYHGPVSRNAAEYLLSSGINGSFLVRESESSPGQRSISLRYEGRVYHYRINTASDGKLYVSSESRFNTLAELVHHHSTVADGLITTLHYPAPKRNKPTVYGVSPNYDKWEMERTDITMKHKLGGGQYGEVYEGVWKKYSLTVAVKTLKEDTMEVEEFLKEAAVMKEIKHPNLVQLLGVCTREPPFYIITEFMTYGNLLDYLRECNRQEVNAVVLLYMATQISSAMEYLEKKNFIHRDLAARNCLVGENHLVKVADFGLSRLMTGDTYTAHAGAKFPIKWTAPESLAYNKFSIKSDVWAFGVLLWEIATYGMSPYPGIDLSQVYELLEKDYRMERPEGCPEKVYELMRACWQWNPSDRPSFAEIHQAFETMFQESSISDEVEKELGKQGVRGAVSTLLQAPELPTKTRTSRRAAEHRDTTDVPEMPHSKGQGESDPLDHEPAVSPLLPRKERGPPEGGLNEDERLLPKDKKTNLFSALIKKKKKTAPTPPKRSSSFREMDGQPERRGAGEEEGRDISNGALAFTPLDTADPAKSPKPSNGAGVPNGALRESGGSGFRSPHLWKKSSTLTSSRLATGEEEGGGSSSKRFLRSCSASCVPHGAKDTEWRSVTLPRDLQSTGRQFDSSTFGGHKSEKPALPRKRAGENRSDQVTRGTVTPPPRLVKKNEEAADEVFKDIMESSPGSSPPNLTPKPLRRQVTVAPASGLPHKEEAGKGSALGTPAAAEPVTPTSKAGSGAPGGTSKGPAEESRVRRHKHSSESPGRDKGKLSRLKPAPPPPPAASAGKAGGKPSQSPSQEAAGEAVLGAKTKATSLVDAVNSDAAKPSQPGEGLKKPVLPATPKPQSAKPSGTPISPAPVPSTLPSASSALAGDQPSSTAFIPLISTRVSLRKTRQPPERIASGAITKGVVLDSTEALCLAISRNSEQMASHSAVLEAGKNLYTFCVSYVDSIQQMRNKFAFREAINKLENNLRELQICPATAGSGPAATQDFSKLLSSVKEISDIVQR
Chain of Bcr/Abl fusion protein (P11274 whole entry, further chain, the tested form may be a part): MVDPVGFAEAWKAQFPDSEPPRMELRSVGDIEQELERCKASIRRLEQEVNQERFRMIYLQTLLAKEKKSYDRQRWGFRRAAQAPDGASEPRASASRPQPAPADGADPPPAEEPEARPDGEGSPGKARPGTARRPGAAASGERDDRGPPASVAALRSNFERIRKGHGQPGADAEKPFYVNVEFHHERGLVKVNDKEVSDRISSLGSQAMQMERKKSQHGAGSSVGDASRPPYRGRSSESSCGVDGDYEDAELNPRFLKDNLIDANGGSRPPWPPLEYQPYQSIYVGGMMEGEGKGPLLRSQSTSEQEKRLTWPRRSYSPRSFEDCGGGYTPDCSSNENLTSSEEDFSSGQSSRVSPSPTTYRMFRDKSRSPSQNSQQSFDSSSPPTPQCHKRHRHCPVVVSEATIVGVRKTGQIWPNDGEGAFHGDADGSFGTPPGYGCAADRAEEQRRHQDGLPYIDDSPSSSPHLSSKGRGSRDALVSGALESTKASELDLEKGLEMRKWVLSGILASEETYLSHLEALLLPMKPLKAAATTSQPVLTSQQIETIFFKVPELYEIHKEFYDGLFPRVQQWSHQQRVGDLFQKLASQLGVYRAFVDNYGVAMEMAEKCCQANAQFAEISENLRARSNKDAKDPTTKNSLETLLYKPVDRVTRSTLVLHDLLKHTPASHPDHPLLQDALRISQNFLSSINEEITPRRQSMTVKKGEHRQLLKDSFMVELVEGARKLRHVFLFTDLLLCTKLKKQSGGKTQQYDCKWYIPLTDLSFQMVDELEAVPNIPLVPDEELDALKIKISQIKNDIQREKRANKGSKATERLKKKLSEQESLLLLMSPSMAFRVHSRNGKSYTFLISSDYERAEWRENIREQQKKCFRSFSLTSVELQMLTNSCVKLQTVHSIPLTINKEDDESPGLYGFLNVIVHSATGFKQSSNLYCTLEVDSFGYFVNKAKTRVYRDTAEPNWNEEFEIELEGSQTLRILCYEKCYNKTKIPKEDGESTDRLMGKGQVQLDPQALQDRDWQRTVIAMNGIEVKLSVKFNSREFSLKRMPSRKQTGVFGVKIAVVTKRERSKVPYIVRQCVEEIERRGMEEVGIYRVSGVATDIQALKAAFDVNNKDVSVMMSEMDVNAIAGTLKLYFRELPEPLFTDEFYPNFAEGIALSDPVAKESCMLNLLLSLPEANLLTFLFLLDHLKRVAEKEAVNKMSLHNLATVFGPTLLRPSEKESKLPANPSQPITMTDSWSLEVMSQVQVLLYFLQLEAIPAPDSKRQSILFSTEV
Description: Inhibition of wild type Bcr-Abl (unknown origin) using Tyr2 peptide substrate after 2 hrs by FRET-based Z'-lyte assay

[2] = tested on: Tyrosine-protein kinase ABL1 (Mus musculus), P00520 [T315I]; test: Inhibition of Bcr-Abl T315I mutant phosphorylation in mouse BA/F3 cells after 4 hrs by Western blot analysis; type: cell-based; details: BaF3
Chain of Tyrosine-protein kinase ABL1 (Mus musculus), P00520 [T315I] (P00520 whole entry T315I): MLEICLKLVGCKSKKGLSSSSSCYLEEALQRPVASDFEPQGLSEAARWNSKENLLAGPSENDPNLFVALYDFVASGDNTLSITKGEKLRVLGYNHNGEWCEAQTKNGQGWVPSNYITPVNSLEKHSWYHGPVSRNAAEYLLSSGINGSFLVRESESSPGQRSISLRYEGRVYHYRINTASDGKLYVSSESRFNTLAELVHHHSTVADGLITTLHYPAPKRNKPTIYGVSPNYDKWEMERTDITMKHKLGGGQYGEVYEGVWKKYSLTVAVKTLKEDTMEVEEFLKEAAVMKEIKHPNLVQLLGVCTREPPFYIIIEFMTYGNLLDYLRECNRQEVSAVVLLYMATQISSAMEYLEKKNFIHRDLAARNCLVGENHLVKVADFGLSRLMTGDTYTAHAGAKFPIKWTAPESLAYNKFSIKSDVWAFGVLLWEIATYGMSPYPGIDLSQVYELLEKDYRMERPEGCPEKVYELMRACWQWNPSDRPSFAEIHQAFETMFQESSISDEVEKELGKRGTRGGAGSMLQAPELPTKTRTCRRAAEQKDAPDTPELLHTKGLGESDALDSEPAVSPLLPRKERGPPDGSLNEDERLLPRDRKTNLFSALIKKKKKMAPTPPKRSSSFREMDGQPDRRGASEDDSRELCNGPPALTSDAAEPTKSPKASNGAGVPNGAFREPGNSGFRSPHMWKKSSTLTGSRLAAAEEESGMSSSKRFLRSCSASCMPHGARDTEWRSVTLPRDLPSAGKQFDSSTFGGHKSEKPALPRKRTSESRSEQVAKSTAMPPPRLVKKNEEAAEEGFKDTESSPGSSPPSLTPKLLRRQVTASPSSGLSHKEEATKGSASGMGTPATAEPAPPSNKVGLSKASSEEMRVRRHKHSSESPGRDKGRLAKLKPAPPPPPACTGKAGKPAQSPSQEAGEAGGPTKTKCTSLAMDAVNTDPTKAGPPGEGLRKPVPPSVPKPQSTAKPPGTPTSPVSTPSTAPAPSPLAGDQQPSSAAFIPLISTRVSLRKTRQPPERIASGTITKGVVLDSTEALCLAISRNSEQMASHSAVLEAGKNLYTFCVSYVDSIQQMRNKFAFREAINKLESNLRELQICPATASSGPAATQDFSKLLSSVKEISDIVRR

[3] = tested on: Tyrosine-protein kinase ABL1 (Mus musculus), P00520 [T315I]; test: Inhibition of Bcr-Abl T315I mutant in mouse BA/F3 cells assessed as reduction of CRKL phosphorylation at 4 to 500 nM after 4 hrs by Western blot analysis; type: cell-based; details: BaF3
[4] = tested on: Tyrosine-protein kinase ABL1 (Mus musculus), P00520 [T315I]; test: Inhibition of Bcr-Abl T315I mutant in mouse BA/F3 cells assessed as total protein level of Bcr-Abl at 4 to 500 nM after 4 hrs by Western blot analysis; type: cell-based; details: BaF3
[5] = tested on: Tyrosine-protein kinase ABL1 (Mus musculus), P00520 [T315I]; test: Inhibition of Bcr-Abl T315I mutant in mouse BA/F3 cells assessed as total protein level of CRKL at 4 to 500 nM after 4 hrs by Western blot analysis; type: cell-based; details: BaF3
[6] = tested on: Tyrosine-protein kinase ABL1 (Mus musculus), P00520 [T315I]; test: Inhibition of Bcr-Abl T315I mutant in mouse BA/F3 cells assessed as total protein level of STAT5 at 4 to 500 nM after 4 hrs by Western blot analysis; type: cell-based; details: BaF3
K562 [7] = test: Cell cycle arrest in human K562 cells expressing wild type Bcr-Abl assessed as accumulation at G0/G1 phase at 0.8 nM after 24 hrs using propidium iodide staining by flow cytometry (reference value: 64.03%); type: functional
K562 [8] = test: Cell cycle arrest in human K562 cells expressing wild type Bcr-Abl assessed as accumulation at G0/G1 phase at 4 nM after 24 hrs using propidium iodide staining by flow cytometry (reference value: 64.03%); type: functional
K562 [9] = test: Cell cycle arrest in human K562 cells expressing wild type Bcr-Abl assessed as accumulation at G0/G1 phase at 20 nM after 24 hrs using propidium iodide staining by flow cytometry (reference value: 64.03%); type: functional
K562 [10] = test: Induction of apoptosis in human K562 cells expressing wild type Bcr-Abl assessed as early apoptotic cells at 0.8 nM after 24 hrs using annexin-V/7-AAD staining by FACS analysis (reference value: 7.3%); type: functional
K562 [11] = test: Induction of apoptosis in human K562 cells expressing wild type Bcr-Abl assessed as early apoptotic cells at 4 nM after 24 hrs using annexin-V/7-AAD staining by FACS analysis (reference value: 7.3%); type: functional
K562 [12] = test: Induction of apoptosis in human K562 cells expressing wild type Bcr-Abl assessed as late apoptotic cells at 20 nM after 24 hrs using annexin-V/7-AAD staining by FACS analysis (reference value: 2.1%); type: functional
K562 [13] = test: Induction of apoptosis in human K562 cells expressing wild type Bcr-Abl assessed as early apoptotic cells at 20 nM after 24 hrs using annexin-V/7-AAD staining by FACS analysis (reference value: 7.3%); type: functional
K562 [14] = test: Induction of apoptosis in human K562 cells expressing wild type Bcr-Abl assessed as early apoptotic cells at 100 nM after 24 hrs using annexin-V/7-AAD staining by FACS analysis (reference value: 7.3%); type: functional
[15] = Cell cycle arrest in mouse BA/F3 cells expressing Bcr-Abl T315I mutant assessed as accumulation at G0/G1 phase at 4 nM after 24 hrs using propidium iodide staining by flow cytometry (reference value: 51.92%); type: functional, cell-based; details: BaF3
[16] = Cell cycle arrest in mouse BA/F3 cells expressing Bcr-Abl T315I mutant assessed as accumulation at G0/G1 phase at 20 nM after 24 hrs using propidium iodide staining by flow cytometry (reference value: 51.92%); type: functional, cell-based; details: BaF3
[17] = Cell cycle arrest in mouse BA/F3 cells expressing Bcr-Abl T315I mutant assessed as accumulation at G0/G1 phase at 100 nM after 24 hrs using propidium iodide staining by flow cytometry (reference value: 51.92%); type: functional, cell-based; details: BaF3
[18] = Cell cycle arrest in mouse BA/F3 cells expressing Bcr-Abl T315I mutant assessed as accumulation at G0/G1 phase at 500 nM after 24 hrs using propidium iodide staining by flow cytometry (reference value: 51.92%); type: functional, cell-based; details: BaF3
BaF3 [19] = test: Induction of apoptosis in mouse BA/F3 cells expressing Bcr-Abl T315I mutant assessed as late apoptotic cells at 4 nM after 24 hrs using annexin-V/7-AAD staining by FACS analysis (reference value: 2.2%); type: functional
BaF3 [20] = test: Induction of apoptosis in mouse BA/F3 cells expressing Bcr-Abl T315I mutant assessed as late apoptotic cells at 20 nM after 24 hrs using annexin-V/7-AAD staining by FACS analysis (reference value: 2.2%); type: functional
BaF3 [21] = test: Induction of apoptosis in mouse BA/F3 cells expressing Bcr-Abl T315I mutant assessed as early apoptotic cells at 100 nM after 24 hrs using annexin-V/7-AAD staining by FACS analysis (reference value: 4.6%); type: functional
BaF3 [22] = test: Induction of apoptosis in mouse BA/F3 cells expressing Bcr-Abl T315I mutant assessed as late apoptotic cells at 500 nM after 24 hrs using annexin-V/7-AAD staining by FACS analysis (reference value: 2.2%); type: functional
K562 [23] = test: Induction of apoptosis in human K562 cells expressing wild type Bcr-Abl assessed as late apoptotic cells after 24 hrs using annexin-V/7-AAD staining by FACS analysis; type: functional, cell-based
K562 [24] = test: Induction of apoptosis in human K562 cells expressing wild type Bcr-Abl assessed as early apoptotic cells after 24 hrs using annexin-V/7-AAD staining by FACS analysis; type: functional, cell-based
Rattus norvegicus [25] = test: AUC (0 to infinity) in Sprague-Dawley rat at 25 mg/kg, po; type: ADME, organism-based; parameters: dose 25 mg/kg, time infinity, route oral; details: in vivo
Rattus norvegicus [26] = test: AUC (0 to infinity) in Sprague-Dawley rat at 10 mg/kg, iv; type: ADME, organism-based; parameters: dose 10 mg/kg, time infinity, route intravenous; details: in vivo
[27] = Ratio of Cmax in Sprague-Dawley rat at 25 mg/kg, po to IC50 for Bcr-Abl T315I mutant (unknown origin); type: ADME, organism-based; details: in vivo
K562 [28] = test: Antitumor activity against human K562 cells expressing wild type Bcr-Abl xenografted in po dosed mouse assessed as tumor growth inhibition administered qd for 16 days; type: functional, organism-based
K562 [29] = test: Antitumor activity against human K562 cells expressing wild type Bcr-Abl xenografted in mouse assessed as complete eradication of tumor at 10 mg/kg, po qd for 8 days; type: functional, organism-based
K562 [30] = test: Antitumor activity against human K562 cells expressing wild type Bcr-Abl xenografted in mouse assessed as sign of tumor recurrence at 10 mg/kg, po qd for 16 days measured after 7 days of last dose; type: functional, organism-based
Mus musculus [31] = test: Toxicity in human K562 cells expressing wild type Bcr-Abl xenografted mouse assessed as mortality at 3.3 to 10 mg/kg, po qd for 16 days; type: organism-based; details: in vivo, 384 h
K562 [32] = test: cells; details: Homo sapiens, K562, 72 h
Description: Antiproliferative activity against human K562 cells expressing wild type Bcr-Abl after 72 hrs by CCK-8 assay

cells = details: Mus musculus, BaF3, 72 h

## Cc1cn(-c2cc(NC(=O)c3ccc(C)c(C#Cc4cnc(NC5CC5)nc4)c3)cc(C(F)(F)F)c2)cn1
Mus musculus [1]
  Activity: < 5%
Bcr/Abl fusion protein
  pIC50: 8.30
[2]
  inhibition: Dose-dependent effect
[3]
  inhibition: Active
[4]
  inhibition: inactive
[5]
  inhibition: inactive
[6]
  inhibition: inactive
K562 [7]
  Activity: 67.61%
K562 [8]
  Activity: 85.99%
K562 [9]
  Activity: 87.03%
K562 [10]
  Activity: 7.1%
K562 [11]
  Activity: 6.7%
K562 [12]
  Activity: 2.5%
K562 [13]
  Activity: 14.2%
K562 [14]
  Activity: 73.6%
[15]
  Activity: 52.4%
[16]
  Activity: 58.9%
[17]
  Activity: 67.2%
[18]
  Activity: 70.2%
BaF3 [19]
  Activity: 3.3%
BaF3 [20]
  Activity: 4.1%
BaF3 [21]
  Activity: 7.1%
BaF3 [22]
  Activity: 4.3%
K562 [23]
  Activity: Dose-dependent effect
K562 [24]
  Activity: Dose-dependent effect
Rattus norvegicus [25]
  AUC: 251684 µg/L/h
Rattus norvegicus [26]
  AUC: 285187 µg/L/h
[27]
  Ratio: 1333
K562 [28]
  growth inhibition (GI): Dose-dependent effect
K562 [29]
  Activity: Active
K562 [30]
  Activity: inactive
Mus musculus [31]
  Activity: Non-toxic
K562 [32]
  pIC50: 8.70
cells
  pIC50: 7.30
